Test results: patent US20080081781A1, “Methods and compositions for the treatment of metabolic syndrome” (priority 2004, published 2008)
Like-named read-outs stand apart in the source and are kept apart here.

How the values were obtained:
[1] = test system: patients with metabolic syndrome; assay: Berberine in patients with metabolic syndrome (Table 10); format: in vivo, human; details: for Blood Pressure / Blood Cholesterol / Blood Insulin / Blood Triglyceride / FBG (fasting blood glucose): patients with metabolic syndrome (n = 28); for Blood Cholesterol / Blood Insulin / Blood Triglyceride / FBG (fasting blood glucose): means ± SEs
Source text: Twenty-eight patients 28 (male/female, 17/11; age, 57±8 y) were diagnosed as having metabolic syndrome if they met three or more of the following criteria: fasting blood glucose>7 mmol/L, serum triglyceride>1.7 mmol/L, fasting blood insulin>13 mmcU/mL, blood pressure>135/85 and/or BMI>23. (Eckel, Lancet 365 (9468), 1415-28 (2005); Executive Summary, JAMA 285, 2486-2497 (2001); Balkau, Diabet. Med. 16, 442-443 (1999)) The patients were enrolled in this study at the Nanjing First Hospital, Nanjing, China. The patients were requested to end previous medications or therapies for at least two weeks prior to the beginning of the study.
The patients were then given 1 gram of berberine per day, orally for two months. Blood samples were taken both before and after two months of berberine treatment. Fasting blood levels of glucose, LDL-c, cholesterol, HDL-c, triglyceride and blood insulin were measured using standard methods routinely applied in hospitals. Liver and kidney functions were also monitored in the patients.

LDLR promoter = LDLR promoter activity, pLDLR234Luc reporter in HepG2 cells; format: cell-based, human; details: pLDLR234Luc HepG2, LPDS or LPDS and cholesterol medium, 8 hour treatment
Source text: HepG2 cells were transfected with the reporter construct pLDLR234Luc, which contains the SRE- I motif and the sterol-independent regulatory element that mediates the cytokine oncostatin M-induced transcription of the LDLR gene.

[2] = Toxicity analysis (LD50) in mice; details: mouse, in vivo
Procedure: Rats and mice were administered berberine through a variety of techniques, including orally, through subcutaneous injection, peritoneal injection and intravenous injection.

clinical = details: human, in vivo, po, 300 mg
Procedure: Healthy human volunteers were given 300 mg of berberine orally. […] The blood concentration curve was analyzed by 3P87 Pharmacokinetics Software program (Chinese Pharmacological Association, China).

hyperlipidemia patients = details: for Cholesterol / HDL Protein / LDL Protein / Triglycerides: hyperlipidemia patients, n = 32
Procedure: After three months, fasting serum concentrations of cholesterol, triglycerides, HDL and LDL were measured using standard blood lipid tests.

HepG2 cells = assay: Glucose consumption of HepG2 cells with insulin, with or without InsR siRNA; format: cell-based, human; details: […] berberine, 0.5 nM insulin, 12 hr
Procedure: Human InsR siRNA duplex, non-specific control siRNA, siRNA transfection reagent and siRNA transfection medium were obtained from Santa Cruz Biotechnology, Inc. (Santa Cruz, Calif.) and the vendor's siRNA transfection procedure was followed. Briefly, HepG2 cells were seeded onto six-well plates in antibiotic-free RPMI-1640 medium containing 10% fetal bovine serum (FBS). After 60-80% confluence of monolayer, FBS containing medium was discarded and cells were washed with siRNA transfection medium (2 mVwell). 0.8 ml of siRNA transfection medium containing 6 μl of human InsR siRNA duplex (or control siRNA) and 6 ld^1 of siRNA transfection reagent were well mixed at room temperature for 30 min, followed by loading onto washed HepG2 cells. After an 8 hr incubation, the transfection mixture was removed and fresh RPMI-1640 medium supplied with 10% FBS was added. The cells were then incubated for 24 hr. Then, the culture medium was replaced with fresh medium and incubated for an additional 24 hr. At the end of incubation, FBS containing medium was removed and replaced with serum-free fresh RPMI-1640 medium. […] After 12 hr incubation, the amount of glucose in the sample medium was determined. The glucose consumption was calculated according to the following formula: glucose level of the fresh RPMI-1640 minus glucose level of the used RPMIN-1640. […]

LDLR = assay: Hamster liver LDLR mRNA and protein expression (real-time RT-PCR, western blot); format: in vivo, Chinese hamster; details: 100 mg/kg/day of berberine, end of treatment
Procedure: Two weeks prior to treatment, female Chinese hamsters purchased from the National Institute of Vaccine and Serum research (Beijing, China) were switched to a high fat and cholesterol diet (10% lard, 10% egg yolk powder and 1% cholesterol). After two weeks, groups of 14 hamsters were given either 10 mg/kg/day of berberine through peritoneal injection, 20 mg/kg/day of berberine through peritoneal injection, 50 mg/kg/day, 100 mg/kg/day of berberine orally or saline for ten days. Serum cholesterol, triglyceride and LDL levels were measured after 4 h fasting before, during and after the course of the treatment. Four hours after the course of the treatment, the animals were sacrificed and their livers removed for analysis.
At the end of treatment, three animals from each group were killed and liver LDLR mRNA and protein expressions were examined by quantitative real-time RT-PCR and western blot analysis. For the real-time RT-PCR, reverse transcription with random primers using Superscript II at 42° C. for 30 minutes with 1 μg of total RNA was performed using the ABI Prism 7900-HT Sequence Detection System and Universal MasterMix (Applied Biosystems, Foster City, Calif.). LDLR and GAPD mRNA expression levels were determined using the human LDLR and GAPD Pre-developed TaqMan Assay Reagents (Applied Biosystems).

[3] = After BBR treatment 1 g/day, Bid, 2 months
[4] = After berberine treatment (3 months)
[5] = Before berberine treatment (baseline)

COc1ccc2cc3[n+](cc2c1OC)CCc1cc2c(cc1-3)OCO2 [berberine]
fasting blood glucose after treatment ([1]; 1 gram per day orally, two months, Mean ±SE, before 10.7±0.56): 8.0 ± 0.45 mmol/L | cholesterol after treatment ([1]; 1 gram per day orally, two months, before 6.1±±0.11): 4.7 ± 0.16 mmol/L | blood pressure after treatment ([1]; 1 gram per day orally, two months, before 156/86): 133/79 | Blood Pressure [1, 3]: 133/79 | Blood Cholesterol [1, 3]: 4.7 ± 0.16 mmol/L | Blood Insulin [1, 3]: 12.1 ± 1.35 mlU/L | Blood Triglyceride [1, 3]: 1.47 ± 0.14 mmol/L | FBG (fasting blood glucose) [1, 3]: 8.0 ± 0.45 mmol/L | Blood Pressure ([1]; Before BBR treatment): 156/86 | Blood Cholesterol ([1]; Before BBR treatment): 6.1 ± 0.11 mmol/L | Blood Insulin ([1]; Before BBR treatment): 17 ± 2.15 mlU/L | Blood Triglyceride ([1]; Before BBR treatment): 2.0 ± 0.22 mmol/L | FBG (fasting blood glucose) ([1]; Before BBR treatment): 10.7 ± 0.56 mmol/L | LDLR promoter activity (LDLR promoter): no effect | LD50 ([2]; intraperitoneal, peritoneal injection): 30 to 32.2 mg/kg | LD50 ([2]; intravenous injection): 7.6 to 10.2 mg/kg | LD50 ([2]; sc, subcutaneous injection): 13.9 to 20 mg/kg | AUC (clinical): 2800 ng·h/mL | Cmax (clinical): 395 ng/mL | clear rate CL (clinical): 130.5 L/h | half-life (clinical): 2.91 h | kidney functions (creatine, blood urea nitrogen, total bilirubin) (hyperlipidemia patients; human, in vivo): did not change kidney functions | reduction of alanine aminotransaminase (hyperlipidemia patients; human, in vivo): approximately 48% | reduction of aspartate aminotransaminase (hyperlipidemia patients; human, in vivo): ~36% | reduction of gamma glutamyl transpeptidase (hyperlipidemia patients; human, in vivo): ~41% | side effects (hyperlipidemia patients; human, in vivo): no side effects were observed with the exception of one patient having mild constipation during treatment | Cholesterol (hyperlipidemia patients; [4]): 4.2 ± 0.9 mmol/L | HDL Protein (hyperlipidemia patients; [4]): 1.1 ± 0.3 | LDL Protein (hyperlipidemia patients; [4]): 2.4 ± 0.6 mmol/L | Triglycerides (hyperlipidemia patients; [4]): 1.5 ± 0.9 mmol/L | Cholesterol (hyperlipidemia patients; [5]): 5.9 ± 0.7 mmol/L | HDL Protein (hyperlipidemia patients; [5]): 1.1 ± 0.3 | LDL Protein (hyperlipidemia patients; [5]): 3.2 ± 0.7 mmol/L | Triglycerides (hyperlipidemia patients; [5]): 2.3 ± 1.8 mmol/L | glucose consumption of human hepatic cells treated with insulin (HepG2 cells): significantly increased | increase in LDLR mRNA in hamster livers (LDLR): 3.5 fold | increase in LDLR protein in hamster livers (LDLR): 2.6 fold
